{
  "source": "patent US6071919A",
  "about": "“Zwitterionic compositions and methods as biological response modifiers” (priority 1998, dated 2000)",
  "key": {"[1]": {"conditions": "ADA: data of Schwarzenbach et al. (1955); cited from earlier work"}, "[2]": {"conditions": "ADA: data of Schwarzenbach et al. (1955); cited from earlier work", "remark": "listed apart in the source"}, "[3]": {"conditions": "cited from earlier work; for αpKa /° C.: change of pKa per ° C."}, "[4]": {"conditions": "cited from earlier work"}, "[5]": {"conditions": "ADA: data of Schwarzenbach et al. (1955); cited from earlier work", "remark": "listed apart in the source"}, "[6]": {"conditions": "ADA: data of Schwarzenbach et al. (1955); cited from earlier work", "remark": "listed apart in the source"}, "cancer tumors": {"test_system": "cancer tumors", "experiment": "Macrophage infiltration of tumors", "type": "in vivo, dogs", "conditions": "dogs", "text": "(§1) The amphoteric zwitterion compounds may be employed as active ingredients with other active ingredients, as well as other components and carriers typically used in pharmaceutical compositions; such as, but not limited to: buffers, stabilizers, dyes, antioxidants, dispersing agents, fillers, surfactants, silicones, bulking agents, pigments, salts, human or animal (natural or synthetic) cells and cellular components, antibiotics, drugs, vitamins, amino acids, proteins, serum and various other compounds and combinations thereof in varying amounts."}, "[7]": {"test_system": "giant platelets and histiocytes", "experiment": "Giant platelets and histiocytes on peripheral smear", "type": "in vivo, animals", "conditions": "blood / peripheral smear", "text": "as §1"}, "[8]": {"conditions": "as the hydrochloride (footnote b)"}},
  "note": "Read-outs that look alike come from different tables or passages of the source. Where a SMILES comes first, the peptide text is derived from it.",
  "data": [
    {"compound": "NC(=O)CNCCS(=O)(=O)O", "note": "[ACES]", "values": [
      {"measurement": "Metal-Buffer Binding Constants Log KM, Mn^2+", "setting": "[1]", "value": "Negl"},
      {"measurement": "Metal-Buffer Binding Constants Log KM, Cu^2+", "setting": "[2]", "value": 4.6},
      {"measurement": "pKa at 20°", "setting": "[3]", "value": 6.9},
      {"measurement": "αpKa /° C.", "setting": "[3]", "value": -0.020},
      {"measurement": "Saturated Solution at 0°", "setting": "[4]", "value": 0.22, "unit": "M"}
    ]},
    {"compound": "NC(=O)CN(CC(=O)O)CC(=O)O", "note": "[ADA]", "values": [
      {"measurement": "Metal-Buffer Binding Constants Log KM, Mg^2+", "setting": "[5]", "value": 2.5},
      {"measurement": "Metal-Buffer Binding Constants Log KM, Ca^2+", "setting": "[6]", "value": 4.0},
      {"measurement": "Metal-Buffer Binding Constants Log KM, Mn^2+", "setting": "[1]", "value": 4.9},
      {"measurement": "Metal-Buffer Binding Constants Log KM, Cu^2+", "setting": "[2]", "value": 9.7},
      {"measurement": "pKa at 20°", "setting": "[3]", "value": 6.6}
    ]},
    {"compound": "NC(=O)CNCC(=O)O", "note": "[Acetamidoglycine, Acetamido-glycine]", "values": [
      {"measurement": "pKa at 20°", "setting": "[3]", "value": "~7.7"}
    ]},
    {"compound": "O=S(=O)(O)CCN(CCO)CCO", "note": "[BES]", "values": [
      {"measurement": "Metal-Buffer Binding Constants Log KM, Mg^2+", "setting": "[5]", "value": "Negl"},
      {"measurement": "Metal-Buffer Binding Constants Log KM, Ca^2+", "setting": "[6]", "value": "Negl"},
      {"measurement": "Metal-Buffer Binding Constants Log KM, Mn^2+", "setting": "[1]", "value": "Negl"},
      {"measurement": "Metal-Buffer Binding Constants Log KM, Cu^2+", "setting": "[2]", "value": 3.5},
      {"measurement": "pKa at 20°", "setting": "[3]", "value": 7.15}
    ]},
    {"compound": "O=C(O)CN(CCO)CCO", "note": "[Bicine]", "values": [
      {"measurement": "Metal-Buffer Binding Constants Log KM, Mg^2+", "setting": "[5]", "value": 1.5},
      {"measurement": "Metal-Buffer Binding Constants Log KM, Ca^2+", "setting": "[6]", "value": 2.8},
      {"measurement": "αpKa /° C.", "setting": "[3]", "value": -0.018}
    ]},
    {"compound": "C[N+](C)(C)CCN", "note": "[Cholamine chloride]", "values": [
      {"measurement": "Metal-Buffer Binding Constants Log KM, Mg^2+", "setting": "[5]", "value": "Negl"},
      {"measurement": "Metal-Buffer Binding Constants Log KM, Ca^2+", "setting": "[6]", "value": "Negl"},
      {"measurement": "Metal-Buffer Binding Constants Log KM, Mn^2+", "setting": "[1]", "value": "Negl"},
      {"measurement": "Metal-Buffer Binding Constants Log KM, Cu^2+", "setting": "[2]", "value": "Negl"},
      {"measurement": "pKa at 20°", "setting": "[3]", "value": 7.1},
      {"measurement": "αpKa /° C.", "setting": "[3]", "value": -0.027},
      {"measurement": "Saturated Solution at 0°", "setting": "[4]; [8]", "value": 4.2, "unit": "M"}
    ]},
    {"compound": "NCC(N)=O", "note": "[Glycinamide]", "values": [
      {"measurement": "pKa at 20°", "setting": "[3]", "value": 8.2},
      {"measurement": "αpKa /° C.", "setting": "[3]", "value": -0.029},
      {"measurement": "Saturated Solution at 0°", "setting": "[4]; [8]", "value": 4.6, "unit": "M"}
    ]},
    {"compound": "NCC(=O)NCC(=O)O", "note": "[Glycylglycine] (H-Gly-Gly-OH)", "values": [
      {"measurement": "Metal-Buffer Binding Constants Log KM, Mn^2+", "setting": "[1]", "value": 1.7},
      {"measurement": "Metal-Buffer Binding Constants Log KM, Cu^2+", "setting": "[2]", "value": 5.8},
      {"measurement": "pKa at 20°", "setting": "[3]", "value": 8.4}
    ]},
    {"compound": "O=S(=O)(O)CCN1CCOCC1", "note": "[MES]", "values": [
      {"measurement": "Metal-Buffer Binding Constants Log KM, Cu^2+", "setting": "[2]", "value": "Negl"}
    ]},
    {"compound": "O=S(=O)(O)CCN1CCN(CCS(=O)(=O)O)CC1", "note": "[PIPES]", "values": [
      {"measurement": "macrophage infiltration of cancer tumors", "setting": "cancer tumors", "value": "macrophage infiltration of cancer tumors in dogs"},
      {"measurement": "giant platelets and histiocytes", "setting": "[7]", "value": "production of giant platelets and histiocytes"},
      {"measurement": "Metal-Buffer Binding Constants Log KM, Mg^2+", "setting": "[5]", "value": "Negl"},
      {"measurement": "Metal-Buffer Binding Constants Log KM, Ca^2+", "setting": "[6]", "value": "Negl"},
      {"measurement": "Metal-Buffer Binding Constants Log KM, Mn^2+", "setting": "[1]", "value": "Negl"},
      {"measurement": "Metal-Buffer Binding Constants Log KM, Cu^2+", "setting": "[2]", "value": "Negl"}
    ]},
    {"compound": "O=S(=O)(O)CCNC(CO)(CO)CO", "note": "[TES]", "values": [
      {"measurement": "Metal-Buffer Binding Constants Log KM, Mg^2+", "setting": "[5]", "value": "Negl"},
      {"measurement": "Metal-Buffer Binding Constants Log KM, Ca^2+", "setting": "[6]", "value": "Negl"},
      {"measurement": "Metal-Buffer Binding Constants Log KM, Mn^2+", "setting": "[1]", "value": "Negl"},
      {"measurement": "Metal-Buffer Binding Constants Log KM, Cu^2+", "setting": "[2]", "value": 3.2},
      {"measurement": "pKa at 20°", "setting": "[3]", "value": 7.5},
      {"measurement": "Saturated Solution at 0°", "setting": "[4]", "value": 2.6, "unit": "M"}
    ]},
    {"compound": "O=C(O)CNC(CO)(CO)CO", "note": "[Tricine]", "values": [
      {"measurement": "Metal-Buffer Binding Constants Log KM, Mg^2+", "setting": "[5]", "value": 1.2},
      {"measurement": "Metal-Buffer Binding Constants Log KM, Ca^2+", "setting": "[6]", "value": 2.4},
      {"measurement": "Metal-Buffer Binding Constants Log KM, Cu^2+", "setting": "[2]", "value": 7.3},
      {"measurement": "Saturated Solution at 0°", "setting": "[4]", "value": 0.8, "unit": "M"}
    ]},
    {"compound": "NC(CO)(CO)CO", "note": "[Tris]", "values": [
      {"measurement": "Metal-Buffer Binding Constants Log KM, Mg^2+", "setting": "[5]", "value": "Negl"},
      {"measurement": "Metal-Buffer Binding Constants Log KM, Ca^2+", "setting": "[6]", "value": "Negl"},
      {"measurement": "Metal-Buffer Binding Constants Log KM, Mn^2+", "setting": "[1]", "value": "Negl"},
      {"measurement": "Saturated Solution at 0°", "setting": "[4]", "value": 2.4, "unit": "M"}
    ]}
  ]
}
